Article PMC8464809, “Anticancer and Structure Activity Relationship of Non-Symmetrical Choline Kinase Inhibitors” (Pharmaceutics, 2021)

What was measured:
human ChoKα1 = target: T1, human ChoKα1 (Homo sapiens, UniProt P35790); assay: Inhibition of purified ChoKα1: incorporation of 14C from [methyl-14C]choline into phosphocholine; format: biochemical; settings: purified ChoKα1, 1 mM choline, 10 mM ATP, 37 °C, 10 min; read-out: IC50 hChoKα1
T1 construct: made in house
Experimental: The effect of compounds 3a–h and 4a–h on ChoKα1 was assayed in purified ChoKα1 as previously described, by determining the rate of incorporation of ^14C from [methyl-^14C]choline into phosphocholine, both in the absence (control) or presence of different inhibitor concentrations. Briefly, 20 ng of purified ChoKα1 were incubated with 1 mM [methyl-^14C]choline (4500 dpm/nmol) in 100 mM Tris-HCl (pH 8.5), 10 mM MgCl2, 10 mM ATP, and incubated at 37 °C for 10 min. The reaction was stopped by immersing the reaction tubes in boiling water for 3 min. Aliquots of the reaction were applied to the origin of silica gel plates in the presence of phosphocholine (0.1 mg) and choline (0.1 mg) as carriers. The chromatography was developed in methanol/0.6% NaCl/28% NH4OH in water (50:50:5, v/v/v) as a solvent, and phosphocholine was visualized under exposure to iodine vapor. The corresponding spot was scraped and transferred to scintillation vials for measurement of radioactivity by a Beckman 6000-TA (Madrid, Spain) liquid-scintillation counter. The 50% inhibitory concentrations (IC50 value) were determined from the % activity of the enzyme at different concentrations of synthetic inhibitor using a sigmoidal dose-response curve (the ED50plus v1.0 software).

HT-29 cells = assay: Antiproliferative MTT assay, HT-29; format: cell-based; settings: Homo sapiens, 72 h
Experimental: (§1) Human cervix carcinoma (HeLa) and human breast cancer (MCF-7) were grown in the DMEM medium (Gibco, Milan, Italy). B-acute lymphoblastic leukemia (RS4;11), T-acute lymphoblastic leukemia (CCRF-CEM and Jurkat), human promyelocytic cells (HL-60), and human colon adenocarcinoma (HT-29) cells were grown in RPMI medium (Gibco, Milan, Italy). Both media were supplemented with 115 units/mL of penicillin G (Gibco, Milan, Italy), 115 μg/mL of streptomycin (Invitrogen, Milan, Italy), and 10% FBS (Invitrogen, Milan, Italy). Cell lines were tested for mycoplasma contamination every 6 months by the RT-PCR analysis. Stock solutions (10 mM) of the different compounds were obtained by dissolving them in DMSO. Individual wells of 96-well tissue-culture microtiter plates were inoculated with 100 μL of complete medium containing 5 × 10^3 adherent cells or 25 × 10^3 leukemia cells. The plates were incubated at 37 °C in a humidified 5% CO2 incubator for 18 h prior to the experiments. After medium removal, 100 μL of fresh medium containing the test compound at different concentrations was added to each well and incubated at 37 °C for 72 h.

HeLa cells = assay: Antiproliferative MTT assay, HeLa; format: cell-based; settings: Homo sapiens, 72 h
Experimental: as §1

MCF-7 cells = assay: Antiproliferative MTT assay, MCF-7; format: cell-based; settings: Homo sapiens, MCF7, 72 h
Experimental: as §1

CCRF-CEM cells = assay: Antiproliferative MTT assay, CCRF-CEM; format: cell-based; settings: Homo sapiens, 72 h
Experimental: as §1

HL-60 cells = assay: Antiproliferative MTT assay, HL-60; format: cell-based, human; settings: for GI50: Homo sapiens, HL-60, 72 h, MTT
Experimental: as §1

RS4;11 cells = assay: Antiproliferative MTT assay, RS4;11; format: cell-based; settings: Homo sapiens, 72 h
Experimental: as §1

[1] = Cytotoxicity in resting peripheral blood lymphocytes (MTT); format: cell-based; settings: human, PBL not stimulated with PHA, healthy donors, read-out: GI50 PBLresting
Experimental: (§2) Additional experiments were conducted with peripheral blood lymphocytes (PBL) from healthy donors obtained as described previously. For cytotoxicity evaluations in proliferating PBL cultures, non-adherent cells were resuspended at 5 × 10^5 cells/mL in a growth medium containing 2.5 µg/mL PHA (Irvine Scientific). Different concentrations of the test compounds were added, and viability was determined 72 h later by the MTT test. For cytotoxicity evaluations in resting PBL cultures, non-adherent cells were resuspended (5 × 10^5 cells/mL) and treated for 72 h with the test compounds, as described above.

[2] = Cytotoxicity in PHA-stimulated peripheral blood lymphocytes (MTT); format: cell-based; settings: human, PBL stimulated with PHA, healthy donors, read-out: GI50 PBLPHA
Experimental: as §2

Jurkat cells = assay: Apoptosis by annexin-V/PI flow cytometry; format: cell-based, human; settings: after 24 h of treatment, concentration dependent
Experimental: Jurkat cells were treated with the test compounds and after different times stained with both PI, to stain DNA, and annexin V-fluorescein isothiocyanate, to stain membrane PS exposed on the cell surface, following the instructions of the manufacturer (Roche Diagnostics) of the Annexin-V-Fluos reagent.

[3] = system: HT-29, HeLa, MCF-7, CCRF-CEM, HL-60, and RS4;11cells; assay: Antiproliferative MTT assay, panel of six human tumor cell lines; format: cell-based; settings: HL-60, RS4;11, 72 h
Experimental: as §1

[4] = system: choline uptake in HepG2 cells; assay: Choline uptake assay; format: cell-based; settings: Homo sapiens, 10 min preincubation with the compound
Experimental: Choline uptake was determined as previously reported. Briefly, HepG2 cells (200,000 cells/well) were incubated for 10 min at 37 °C either in a medium containing different concentrations of ChoKα1 inhibitors or only with the medium as controls. The medium was then removed and the cells were immediately exposed to a medium containing [methyl-^14C]choline (16 μM, 31 Ci/mol) for 10 min at 37 °C. The incorporation of choline was stopped by medium aspiration followed by two washes with ice-cold PBS containing 580 μM choline. The cells were solubilized in NaOH 0.1 N and an aliquot was used to determine the total amount of radiolabel taken up by the cells.

T1 sequence (P35790 whole entry): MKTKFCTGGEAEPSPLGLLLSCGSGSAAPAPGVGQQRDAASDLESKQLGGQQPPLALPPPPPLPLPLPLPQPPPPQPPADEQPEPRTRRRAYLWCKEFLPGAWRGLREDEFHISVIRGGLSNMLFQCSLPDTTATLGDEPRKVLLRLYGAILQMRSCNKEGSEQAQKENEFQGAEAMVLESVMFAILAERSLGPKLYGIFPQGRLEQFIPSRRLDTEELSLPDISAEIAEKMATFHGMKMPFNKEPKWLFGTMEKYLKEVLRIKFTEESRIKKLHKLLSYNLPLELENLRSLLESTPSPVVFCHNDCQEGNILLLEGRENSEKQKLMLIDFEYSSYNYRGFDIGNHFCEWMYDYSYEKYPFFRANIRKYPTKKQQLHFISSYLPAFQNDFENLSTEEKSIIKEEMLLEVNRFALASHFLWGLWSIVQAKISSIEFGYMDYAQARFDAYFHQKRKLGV

Compound	IC50 (human ChoKα1) [µM]	GI50 (HT-29 cells) [µM]	GI50 (HeLa cells) [µM]	GI50 (MCF-7 cells) [µM]	GI50 (CCRF-CEM cells) [µM]	GI50 (HL-60 cells) [µM]	GI50 (RS4;11 cells) [µM]	fold more potent than MN-48b (HL-60 cells; against HL-60 leukemic cells, MN-48b ref 23) [fold]	GI50 at 72 h [1] [µM]	GI50 at 72 h [2] [µM]	apoptotic cells (annexin-V/PI) (Jurkat cells)	GI50 values, range over six cell lines [3] [nM]	IC50 [4] [µM]
Nc1cccc(OCc2ccc(C[n+]3ccc(N4CCCC4)cc3)cc2)c1 [Compound 3a]	> 50	36 ± 7.4	4.8 ± 0.58	22.8 ± 4.3	3.4 ± 0.7	4.8 ± 0.4	16.8 ± 4.8	–	–	–	–	–	–
Nc1cccc(OCc2ccc(-c3ccc(C[n+]4ccc(N5CCCC5)cc4)cc3)cc2)c1 [Compound 3b]	17.5 ± 1.24	–	–	–	–	–	–	–	–	–	–	–	–
Nc1cccc(OCc2ccc(CCc3ccc(C[n+]4ccc(N5CCCC5)cc4)cc3)cc2)c1 [Compound 3c]	8.56 ± 0.94	0.63 ± 0.14	0.068 ± 0.028	0.3 ± 0.1	0.03 ± 0.003	0.011 ± 0.005	0.15 ± 0.012	30	> 10	> 10	significant increase of apoptotic cells	630 to 11	–
Nc1cccc(OCc2ccc(CCCCc3ccc(C[n+]4ccc(N5CCCC5)cc4)cc3)cc2)c1 [Compound 3d]	6.79 ± 0.47	0.58 ± 0.17	0.16 ± 0.048	0.5 ± 0.2	0.015 ± 0.005	0.12 ± 0.091	0.29 ± 0.053	–	–	–	–	–	15.8 ± 0.24
CN(C)c1cc[n+](Cc2ccc(COc3cccc(N)c3)cc2)cc1 [Compound 3e]	6.33 ± 0.8	26.1 ± 6.7	8.2 ± 2.4	23.6 ± 5.1	1.2 ± 0.5	38.7 ± 6.2	53.6 ± 13.4	–	–	–	–	–	–
CN(C)c1cc[n+](Cc2ccc(-c3ccc(COc4cccc(N)c4)cc3)cc2)cc1 [Compound 3f]	6.39 ± 0.46	4.4 ± 0.7	4.2 ± 0.5	7.6 ± 1.6	0.54 ± 0.21	2.4 ± 0.7	2 ± 0.5	–	–	–	–	–	–
CN(C)c1cc[n+](Cc2ccc(CCc3ccc(COc4cccc(N)c4)cc3)cc2)cc1 [Compound 3g]	4.29 ± 0.12	2.2 ± 0.9	1.2 ± 0.2	4.3 ± 0.9	0.4 ± 0.26	1.6 ± 0.9	2.6 ± 0.2	–	–	–	–	–	–
CN(C)c1cc[n+](Cc2ccc(CCCCc3ccc(COc4cccc(N)c4)cc3)cc2)cc1 [Compound 3h]	7.01 ± 0.13	–	–	–	–	–	–	–	–	–	–	–	–
Oc1cccc(NCc2ccc(C[n+]3ccc(N4CCCC4)cc3)cc2)c1 [Compound 4a]	3.34 ± 0.34	49.7 ± 11.4	12.8 ± 2.6	17.8 ± 5.3	7.3 ± 2.5	4.1 ± 1.2	24.5 ± 2.9	–	–	–	–	–	–
Oc1cccc(NCc2ccc(-c3ccc(C[n+]4ccc(N5CCCC5)cc4)cc3)cc2)c1 [Compound 4b]	3.85 ± 0.1	6.6 ± 2.3	2.1 ± 0.4	4.4 ± 0.5	0.5 ± 0.1	1.1 ± 0.3	2.8 ± 0.6	–	–	–	–	–	–
Oc1cccc(NCc2ccc(CCc3ccc(C[n+]4ccc(N5CCCC5)cc4)cc3)cc2)c1 [Compound 4c]	3.83 ± 0.91	5.3 ± 2.1	0.86 ± 0.26	1.7 ± 0.4	0.14 ± 0.03	0.065 ± 0.023	0.46 ± 0.061	–	–	–	–	–	–
Oc1cccc(NCc2ccc(CCCCc3ccc(C[n+]4ccc(N5CCCC5)cc4)cc3)cc2)c1 [Compound 4d]	3.36 ± 0.17	5.8 ± 1.9	0.39 ± 0.12	2.8 ± 0.5	0.086 ± 0.03	0.33 ± 0.074	0.71 ± 0.16	–	–	–	–	–	–
CN(C)c1cc[n+](Cc2ccc(CNc3cccc(O)c3)cc2)cc1 [Compound 4e]	2.82 ± 0.16	23.8 ± 8.2	12.4 ± 1.8	6.7 ± 1.5	8.4 ± 1.6	4 ± 0.9	31 ± 2.6	–	–	–	–	–	–
CN(C)c1cc[n+](Cc2ccc(-c3ccc(CNc4cccc(O)c4)cc3)cc2)cc1 [Compound 4f]	–	13.2 ± 5	3.6 ± 0.4	5 ± 1	1.1 ± 0.4	1.3 ± 0.4	3.7 ± 0.4	–	7.6 ± 1.1	3.6 ± 0.8	significant increase of apoptotic cells	–	3.5 ± 0.07
CN(C)c1cc[n+](Cc2ccc(CCc3ccc(CNc4cccc(O)c4)cc3)cc2)cc1 [Compound 4g]	3.66 ± 0.11	5.2 ± 1.7	1.7 ± 0.2	2.4 ± 0.2	0.7 ± 0.1	0.25 ± 0.066	1.1 ± 0.3	–	–	–	–	–	–
CN(C)c1cc[n+](Cc2ccc(CCCCc3ccc(CNc4cccc(O)c4)cc3)cc2)cc1 [Compound 4h]	–	3.6 ± 1.4	0.7 ± 0.1	2.2 ± 1	0.16 ± 0.034	0.37 ± 0.079	0.5 ± 0.08	–	–	–	–	–	–
